Measurements taken from patent US11304970B2, “EGFR gene expression-suppressing siRNA, precursor of same, and applications thereof” (JIANGSU MICROMEDMARK BIOTECH CO., LTD., priority 2016, dated 2022).

Tested on: mouse Lewis lung cancer
Assay: Survival (Kaplan-Meier) and micro-CT tumour examination in Lewis lung cancer mice (Example 3)
Details: 5 mg/kg, once every 3 days, 7 times, plasmid intravenous, Gefitinib oral
Method: To further study the therapeutic effect of the EGFR siRNA plasmid on mouse Lewis lung cancer, after successful model construction of Lewis lung cancer mice, we performed treatment in the following three groups: the EGFR-si plasmid group, Gefitinib group and control plasmid group, respectively. […] The EGFR-si plasmid and control plasmid were administered by intravenous injection, and Gefitinib was administered orally. The dosage in each treatment group was 5 mg/kg, and the administration interval was once every 3 days, for a total of 7 times. After the treatment, we recorded the survival situation of the mice and plotted the Kaplan-Meier survival curve using the Graphpad Prism statistical software.

SMILES: COc1cc2ncnc(Nc3ccc(F)c(Cl)c3)c2cc1OCCCN1CCOCC1 [Gefitinib]
- change of lung tumours after the treatment (micro-CT): the tumours generally grew
